In ChEMBL document CHEMBL5050844 (2019):

How the values were obtained:
Format in all cases: functional, T cell line
[1] = Induction of anti-CD3 antibodies-stimulated human T cell activation at 8 uM assessed fold increase in IL-2 secretion measured by ELISA assay; note: reference of the scale not given here
[2] = Induction of anti-CD3/CD28 antibodies-stimulated human T cell activation at 1 uM assessed fold increase in IL-2 secretion measured by ELISA assay
[3] = Induction of anti-CD3/CD28 antibodies-stimulated human T cell activation at 0.3 uM assessed fold increase in CD25 expression measured by ELISA assay
[4] = Induction of anti-CD3 antibodies-stimulated human T cell activation at 1 uM assessed fold increase in CD25 expression measured by ELISA assay; note: reference of the scale not given here
[5] = Induction of anti-CD3 antibodies-stimulated human T cell activation at 8 uM assessed fold increase in CD25 expression measured by ELISA assay; note: reference of the scale not given here
[6] = Induction of anti-CD3 antibodies-stimulated human T cell activation at 1 uM assessed fold increase in IL-2 secretion measured by ELISA assay; note: reference of the scale not given here
[7] = Induction of anti-CD3/CD28 antibodies-stimulated human T cell activation at 0.3 uM assessed fold increase in IL-2 secretion measured by ELISA assay
[8] = Induction of anti-CD3/CD28 antibodies-stimulated human T cell activation at 1 uM assessed fold increase in CD25 expression measured by ELISA assay
[9] = Induction of anti-CD3/CD28 antibodies-stimulated human T cell activation at 4 uM assessed fold increase in IL-2 secretion measured by ELISA assay
[10] = Induction of anti-CD3/CD28 antibodies-stimulated human T cell activation at 4 uM assessed fold increase in CD25 expression measured by ELISA assay

Structure (SMILES)	fold change (FC) [1]	fold change (FC) [2]	fold change (FC) [3]	fold change (FC) [4]	fold change (FC) [5]	fold change (FC) [6]	fold change (FC) [7]	fold change (FC) [8]	fold change (FC) [9]	fold change (FC) [10]
C[C@@H](Cc1nncn1C)c1cccc(NC(=O)c2cc(C3CC3)cc(C(F)(F)F)n2)c1	0.101	1.01	1.01	0.601	0.601	0.051	1.01	1.01	1.01	1.01
Cc1ccc(C(=O)Nc2cccc([C@H](C)Cc3nnc[nH]3)c2)nc1C1CC1	<=0.05	1.01	1.51	<=0.6	<=0.6	<=0.05	1.01	1.51	1.01	>=1.76
Cc1ccc(C(=O)Nc2cccc([C@H](C)Sc3nncn3C)c2)nc1C	>=0.201	2.51	<=1	<=0.6	0.601	<=0.05	1.01	1.01	2.51	1.31
C[C@H](Sc1nncn1C)c1cccc(NC(=O)c2cc(Cl)cc(C(F)(F)F)n2)c1	0.051	1.01	1.01	0.601	0.801	<=0.05	1.01	1.01	1.01	1.01
C[C@H](Sc1nncn1C)c1cccc(NC(=O)c2cc(C3(O)COC3)cc(C(F)(F)F)n2)c1	<=0.05	<=1	<=1	<=0.6	0.601	<=0.05	<=1	1.01	<=1	1.01
C[C@H](Sc1nncn1C)c1cc(F)cc(N2Cc3c(cccc3C(F)(F)F)C2=O)c1	<=0.05	1.01	1.01	<=0.6	0.801	<=0.05	<=1	1.01	<=1	1.01
C[C@H](Sc1nncn1C)c1cccc(NC(=O)c2cccc(C(C)(F)F)n2)c1	0.151	<=1	1.01	0.801	>=1.001	<=0.05	<=1	1.51	2.51	>=1.76
COc1nc(C(=O)Nc2cccc([C@H](C)Sc3nncn3C)c2)cc2ccccc12	0.051	5	<=1	<=0.6	0.801	<=0.05	2.51	1.01	>=7.5	1.01
Cc1cc(C(=O)Nc2cccc([C@H](C)Sc3nncn3C)c2)nc2ccccc12	0.101	1.01	1.01	0.601	0.801	0.051	1.01	1.01	2.51	1.01
C[C@H](Sc1nncn1C)c1cccc(NC(=O)c2cc3c(Cl)cccc3[nH]2)c1	>=0.201	1.01	<=1	0.601	0.801	<=0.05	1.01	1.01	2.51	1.01
Cn1cnnc1CC(c1cccc(N2Cc3c(cccc3C(F)(F)F)C2=O)c1)C(F)(F)F (stereo not given)	0.151	<=1	1.01	0.801	0.801	0.101	<=1	1.01	1.01	1.01
C[C@H](Cc1nncn1C)c1cccc(NC(=O)c2[nH]nc3c2CCCC3)c1	0.051	1.01	1.01	0.601	0.801	0.051	1.01	1.01	1.01	1.01
C[C@H](Sc1nncn1C)c1cccc(NC(=O)c2cc3cc(OCC(=O)NCCN)ccc3cn2)c1.Cl	<=0.05	<=1	<=1	0.601	0.601	<=0.05	<=1	<=1	1.01	1.01
C[C@H](Sc1nncn1C)c1ccnc(N2Cc3c(cccc3C(F)(F)F)C2=O)c1	<=0.05	2.51	<=1	<=0.6	<=0.6	<=0.05	2.51	<=1	2.51	<=1
COc1cc(C(=O)Nc2cccc([C@H](C)Sc3nncn3C)c2)nc(C(F)(F)F)c1	>=0.201	2.51	1.01	0.801	0.801	0.051	2.51	1.51	5	>=1.76
Cc1conc1C[C@@H](C)c1cccc(NC(=O)c2ccnc(C(F)(F)F)n2)c1	0.101	1.01	1.01	0.801	>=1.001	0.051	1.01	1.01	2.51	1.01
Cc1ccc(C(=O)Nc2cc([C@H](C)Sc3nncn3C)ccn2)nc1C1CC1	<=0.05	2.51	<=1	<=0.6	<=0.6	<=0.05	2.51	<=1	5	1.01
